Measurements from US8231888B2, “Isoxazolines for controlling invertebrate pests” (priority 2005, dated 2012).

Legend:
Type in all cases: in vivo
[1] = test system: diamondback moth (Plutella xylostella); assay: Test A: control of diamondback moth on radish plant, foliar spray; details: sprayed at 250 and/or 50 ppm, 6 days, 25° C.; no asterisk (not limited to 250 ppm)
Source text: For evaluating control of diamondback moth (Plutella xylostella) the test unit consisted of a small open container with a 12-14-day-old radish plant inside. This was pre-infested with about 50 neonate larvae that were dispensed into the test unit via corn cob grits using a bazooka inoculator. The larvae moved onto the test plant after being dispensed into the test unit.
(§1) Test compounds were formulated using a solution containing 10% acetone, 90% water and 300 ppm X-77™ Spreader Lo-Foam Formula non-ionic surfactant containing alkylarylpolyoxyethylene, free fatty acids, glycols and isopropanol (Loveland Industries, Inc. Greeley, Colo., USA). The formulated compounds were applied in 1 mL of liquid through a SUJ2 atomizer nozzle with 1/8 JJ custom body (Spraying Systems Co. Wheaton, Ill., USA) positioned 1.27 cm (0.5 inches) above the top of each test unit. All experimental compounds in these tests were sprayed at 250 and/or 50 ppm, and the test was replicated three times. After spraying of the formulated test compound, each test unit was allowed to dry for 1 h and then a black, screened cap was placed on top. The test units were held for 6 days in a growth chamber at 25° C. and 70% relative humidity. Plant feeding damage was then visually assessed based on foliage consumed and a pest mortality rating was also counted and calculated for each test unit.

[2] = test system: fall armyworm (Spodoptera frugiperda); assay: Test B: control of fall armyworm on corn (maize) plant, foliar spray; details: sprayed at 250 and/or 50 ppm; no asterisk (not limited to 250 ppm)
Experimental: as §1
For evaluating control of fall armyworm (Spodoptera frugiperda) the test unit consisted of a small open container with a 4-5-day-old corn (maize) plant inside. This was pre-infested (using a core sampler) with 10-15 1-day-old larvae on a piece of insect diet. Test compounds were formulated and sprayed at 250 and/or 50 ppm as described for Test A and replicated three times. After spraying, the test units were maintained in a growth chamber and then the control efficacy was rated for each test unit as described for Test A.

[3] = test system: western flower thrips (Frankliniella occidentalis); assay: Test D: control of western flower thrips on Soleil bean plant, contact and/or systemic; details: 6 days, 25° C.
Experimental: as §1
For evaluating control of the western flower thrips (Frankliniella occidentalis) through contact and/or systemic means, the test unit consisted of a small open container with a 5-7 day old Soleil Bean plant inside. Test compounds were formulated and sprayed at 250 and/or 50 ppm, and the test was replicated three times as described for Test A. After spraying, the test units were allowed to dry for 1 hour and then 22-27 adult thrips were added to each unit and then a black, screened cap was placed on top. The test units were held for 6 days at 25° C. and 45-55% relative humidity. A mortality rating was assessed along with a plant damage rating for each test unit.

[4] = asterisk: observed only at 250 ppm
[5] = sprayed at 250 and/or 50 ppm, no asterisk (not limited to 250 ppm)

SMILES	control efficacy (20% or less feeding damage or 80% or more mortality) [1]	control efficacy (20% or less feeding damage or 80% or more mortality) [2]	control efficacy (20% or less feeding damage or 80% or more mortality) [3, 4]	control efficacy (20% or less feeding damage or 80% or more mortality) [3, 5]
CC(NC(=O)c1ccc(C2=NOC(c3cc(Cl)cc(Cl)c3)(C(F)(F)F)C2)c2ccccc12)c1ccccc1 (mixture of isomers) [Compound 15]	very good to excellent levels of control efficacy	very good to excellent levels of control efficacy	very good to excellent levels of control efficacy	–
CCC(C)NC(=O)c1ccc(C2=NOC(c3cc(Cl)cc(Cl)c3)(C(F)(F)F)C2)c2ccccc12 (mixture of isomers) [Compound 32]	very good to excellent levels of control efficacy	very good to excellent levels of control efficacy	–	very good to excellent levels of control efficacy
O=C(NCC(F)(F)F)c1ccc(C2=NOC(c3cc(Cl)cc(Cl)c3)(C(F)(F)F)C2)c2ccccc12 (stereo not drawn) [Compound 1]	very good to excellent levels of control efficacy	very good to excellent levels of control efficacy	–	very good to excellent levels of control efficacy
FC(F)(F)C1(c2cc(Cl)cc(Cl)c2)CC(c2ccc(C(=S)NCc3ccccn3)c3ccccc23)=NO1 (stereo not drawn) [Compound 8]	very good to excellent levels of control efficacy	very good to excellent levels of control efficacy	–	very good to excellent levels of control efficacy
CCNC(=O)c1ccc(C2=NOC(c3cc(Cl)cc(Cl)c3)(C(F)(F)F)C2)c2ccccc12 (stereo not drawn) [Compound 10]	very good to excellent levels of control efficacy	very good to excellent levels of control efficacy	–	very good to excellent levels of control efficacy
COC(=O)N(Cc1ccccn1)C(=O)c1ccc(C2=NOC(c3cc(Cl)cc(Cl)c3)(C(F)(F)F)C2)c2ccccc12 (stereo not drawn) [Compound 11]	very good to excellent levels of control efficacy	very good to excellent levels of control efficacy	–	very good to excellent levels of control efficacy
CN(C)CCNC(=O)c1ccc(C2=NOC(c3cc(Cl)cc(Cl)c3)(C(F)(F)F)C2)c2ccccc12 (stereo not drawn) [Compound 13]	very good to excellent levels of control efficacy	very good to excellent levels of control efficacy	very good to excellent levels of control efficacy	–
CN(C)CCNC(=O)c1ccc(C2=NOC(c3cc(Cl)cc(Cl)c3)(C(F)(F)F)C2)c2ccccc12.Cl (stereo not drawn) [Compound 14]	very good to excellent levels of control efficacy	very good to excellent levels of control efficacy	very good to excellent levels of control efficacy	–
CC(C)NC(=O)c1ccc(C2=NOC(c3cc(Cl)cc(Cl)c3)(C(F)(F)F)C2)c2ccccc12 (stereo not drawn) [Compound 16]	very good to excellent levels of control efficacy	very good to excellent levels of control efficacy	–	very good to excellent levels of control efficacy
C=CCNC(=O)c1ccc(C2=NOC(c3cc(Cl)cc(Cl)c3)(C(F)(F)F)C2)c2ccccc12 (stereo not drawn) [Compound 18]	very good to excellent levels of control efficacy	very good to excellent levels of control efficacy	–	very good to excellent levels of control efficacy
C#CCNC(=O)c1ccc(C2=NOC(c3cc(Cl)cc(Cl)c3)(C(F)(F)F)C2)c2ccccc12 (stereo not drawn) [Compound 19]	very good to excellent levels of control efficacy	very good to excellent levels of control efficacy	–	very good to excellent levels of control efficacy
O=C(NCC1CC1)c1ccc(C2=NOC(c3cc(Cl)cc(Cl)c3)(C(F)(F)F)C2)c2ccccc12 (stereo not drawn) [Compound 20]	very good to excellent levels of control efficacy	very good to excellent levels of control efficacy	very good to excellent levels of control efficacy	–
CC(NC(=O)c1ccc(C2=NOC(c3cc(Cl)cc(Cl)c3)(C(F)(F)F)C2)c2ccccc12)c1ccccn1 (stereo not drawn) [Compound 21]	very good to excellent levels of control efficacy	very good to excellent levels of control efficacy	–	very good to excellent levels of control efficacy
O=C(NCc1ccccn1)c1ccc(C2=NOC(c3cc(Br)cc(Br)c3)(C(F)(F)F)C2)c2ccccc12 (stereo not drawn) [Compound 26]	very good to excellent levels of control efficacy	very good to excellent levels of control efficacy	–	very good to excellent levels of control efficacy
CCC(C)NC(=O)c1ccc(C2=NOC(c3cc(Cl)cc(Cl)c3)(C(F)(F)F)C2)c2ccccc12 (stereo not drawn) [Compound 33]	–	–	very good to excellent levels of control efficacy	–
CC(NC(=O)c1ccc(C2=NOC(c3cc(Cl)cc(Cl)c3)(C(F)(F)F)C2)c2ccccc12)C(C)(C)C (stereo not drawn) [Compound 34]	very good to excellent levels of control efficacy	very good to excellent levels of control efficacy	very good to excellent levels of control efficacy	–
CC(=O)NNC(=O)c1ccc(C2=NOC(c3cc(Cl)cc(Cl)c3)(C(F)(F)F)C2)c2ccccc12 (stereo not drawn) [Compound 45]	very good to excellent levels of control efficacy	–	very good to excellent levels of control efficacy	–
NCCNC(=O)c1ccc(C2=NOC(c3cc(Cl)cc(Cl)c3)(C(F)(F)F)C2)c2ccccc12 (stereo not drawn) [Compound 47]	very good to excellent levels of control efficacy	–	very good to excellent levels of control efficacy	–
COC(=O)[C@H](C)NC(=O)c1ccc(C2=NOC(c3cc(Cl)cc(Cl)c3)(C(F)(F)F)C2)c2ccccc12 (stereo partly drawn) [Compound 48]	very good to excellent levels of control efficacy	–	very good to excellent levels of control efficacy	–
O=C(NCc1ccccn1)c1ccc(C2=NOC(c3ccnc(Cl)c3)(C(F)(F)F)C2)c2ccccc12 (stereo not drawn) [Compound 202]	very good to excellent levels of control efficacy	very good to excellent levels of control efficacy	–	–
